US20090018111A1, “Novel Antimicrobial Medicament” (priority 2004, published 2009)
Like-named read-outs stand apart in the source and are kept apart here.

Columns and labels:
Str. pyogenes Cook = assay: Sensitivity test (agar dilution); assay type: cell-based, Streptococcus pyogenes; conditions: Streptococcus pyogenes, Str. pyogenes Cook
In short: (§1)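 MICs were determined by agar dilution on Mueller Hinton agar containing twofold serial dilutions of single drugs or drug combinations. Overnight 37° C cultures were suspended in gelatin-buffered saline at about 10^6 CFU/ml, and about 5 μl was spot-inoculated. FIC index was calculated from MICs; ≤1 denotes enhancement.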

E. faecium ATCC19434 = assay: Sensitivity test (agar dilution); assay type: cell-based, Enterococcus faecium; conditions: Enterococcus faecium, E. faecium ATCC19434
In short: as §1

B. subtilis ATCC6633 = assay: Sensitivity test (agar dilution); assay type: cell-based, Bacillus subtilis; conditions: Bacillus subtilis, B. subtilis ATCC6633
In short: as §1

E. coli ML1410 RP4 = assay: microbe, parasite or virus in culture; assay type: cell-based, Escherichia coli; conditions: Escherichia coli, E. coli ML1410 RP4
In short: as §1

K. pneumoniae ATCC10031 = assay: Sensitivity test (agar dilution); assay type: cell-based, Klebsiella pneumoniae; conditions: Klebsiella pneumoniae, K. pneumoniae ATCC10031
In short: as §1

P. mirabiris GN2425 = assay: Sensitivity test (agar dilution); assay type: cell-based, Proteus mirabilis; conditions: Proteus mirabilis, P. mirabiris GN2425
In short: as §1

E. aerogenes ATCC13048 = assay: Sensitivity test (agar dilution); assay type: cell-based, Enterobacter aerogenes; conditions: Klebsiella aerogenes, E. aerogenes ATCC13048
In short: as §1

P. aeruginosa IFO3451 = assay: Sensitivity test (agar dilution); assay type: cell-based, Pseudomonas aeruginosa; conditions: Pseudomonas aeruginosa, P. aeruginosa IFO3451
In short: as §1

P. aeruginosa TL-2666 = assay: Sensitivity test (agar dilution); assay type: cell-based, Pseudomonas aeruginosa; conditions: Pseudomonas aeruginosa, P. aeruginosa TL-2666
In short: as §1

P. aeruginosa TL-2667 = assay: Sensitivity test (agar dilution); assay type: cell-based, Pseudomonas aeruginosa; conditions: Pseudomonas aeruginosa, P. aeruginosa TL-2667
In short: as §1

S. maltophilia IID1275 = assay: Sensitivity test (agar dilution); assay type: cell-based, Stenotrophomonas maltophilia; conditions: Stenotrophomonas maltophilia, S. maltophilia IID1275
In short: as §1

M. catarrhalis ATCC25238 = assay: Sensitivity test (agar dilution); assay type: cell-based, Moraxella catarrhalis; conditions: Moraxella catarrhalis, M. catarrhalis ATCC25238
In short: as §1

M. catarrhalis ATCC8176 = assay: Sensitivity test (agar dilution); assay type: cell-based, Moraxella catarrhalis; conditions: Moraxella catarrhalis, M. catarrhalis ATCC8176
In short: as §1

C[C@@H](O)[C@H]1C(=O)N2C(C(=O)O)=C(S[C@@H]3CN[C@H](CNS(N)(=O)=O)C3)[C@H](C)[C@H]12 [DRPM, doripenem]
MIC (Str. pyogenes Cook; Concomitant (DRPM:SM = 1:1), read-out: MIC concomitant): ≤ 0.002 µg/mL | MIC (Str. pyogenes Cook; drug alone, read-out: MIC alone): ≤ 0.002 µg/mL | MIC (E. faecium ATCC19434; ATCC19434, Concomitant (DRPM:SM = 1:1), read-out: MIC concomitant): 0.25 µg/mL | MIC (E. faecium ATCC19434; ATCC19434, drug alone, read-out: MIC alone): 8 µg/mL | MIC (B. subtilis ATCC6633; ATCC6633, Concomitant (DRPM:SM = 1:1), read-out: MIC concomitant): ≤ 0.002 µg/mL | MIC (B. subtilis ATCC6633; ATCC6633, drug alone, read-out: MIC alone): 0.008 µg/mL | MIC (E. coli ML1410 RP4; ML1410RP4, read-out: MIC alone, drug alone): 0.031 µg/mL | MIC (E. coli ML1410 RP4; ML1410RP4, read-out: MIC concomitant, Concomitant (DRPM:SM = 1:1)): 0.031 µg/mL | MIC (K. pneumoniae ATCC10031; ATCC10031, Concomitant (DRPM:SM = 1:1), read-out: MIC concomitant): 0.008 µg/mL | MIC (K. pneumoniae ATCC10031; ATCC10031, drug alone, read-out: MIC alone): 0.016 µg/mL | MIC (P. mirabiris GN2425; GN2425, Concomitant (DRPM:SM = 1:1), read-out: MIC concomitant): 0.063 µg/mL | MIC (P. mirabiris GN2425; GN2425, drug alone, read-out: MIC alone): 0.063 µg/mL | MIC (E. aerogenes ATCC13048; ATCC13048, Concomitant (DRPM:SM = 1:1), read-out: MIC concomitant): 0.031 µg/mL | MIC (E. aerogenes ATCC13048; ATCC13048, drug alone, read-out: MIC alone): 0.031 µg/mL | MIC (P. aeruginosa IFO3451; IFO3451, Concomitant (DRPM:SM = 1:1), read-out: MIC concomitant): 0.25 µg/mL | MIC (P. aeruginosa IFO3451; IFO3451, drug alone, read-out: MIC alone): 0.5 µg/mL | MIC (P. aeruginosa TL-2666; TL2666, Concomitant (DRPM:SM = 1:1), read-out: MIC concomitant): 1 µg/mL | MIC (P. aeruginosa TL-2666; TL2666, drug alone, read-out: MIC alone): 1 µg/mL | MIC (P. aeruginosa TL-2667; TL2667, Concomitant (DRPM:SM = 1:1), read-out: MIC concomitant): 2 µg/mL | MIC (P. aeruginosa TL-2667; TL2667, drug alone, read-out: MIC alone): 2 µg/mL | MIC (S. maltophilia IID1275; IID1275, Concomitant (DRPM:SM = 1:1), read-out: MIC concomitant): > 32 µg/mL | MIC (S. maltophilia IID1275; IID1275, drug alone, read-out: MIC alone): > 32 µg/mL | MIC (M. catarrhalis ATCC25238; ATCC25238, Concomitant (DRPM:SM = 1:1), read-out: MIC concomitant): ≤ 0.002 µg/mL | MIC (M. catarrhalis ATCC25238; ATCC25238, drug alone, read-out: MIC alone): 0.004 µg/mL | MIC (M. catarrhalis ATCC8176; ATCC8176, Concomitant (DRPM:SM = 1:1), read-out: MIC concomitant): ≤ 0.002 µg/mL | MIC (M. catarrhalis ATCC8176; ATCC8176, drug alone, read-out: MIC alone): 0.008 µg/mL
